The target of assay [1] is FAD-linked sulfhydryl oxidase ALR (Homo sapiens, UniProt P55789). Briefly: ALR-catalysed DTT oxidation blockers – biochemical, H2O2 detection, luminescence, cherry-pick, dose response (AID 493248).
For assay [2], the target named is T1, Heat shock factor protein 1 (Mus musculus, UniProt P38532).
T1 sequence (P38532 whole entry): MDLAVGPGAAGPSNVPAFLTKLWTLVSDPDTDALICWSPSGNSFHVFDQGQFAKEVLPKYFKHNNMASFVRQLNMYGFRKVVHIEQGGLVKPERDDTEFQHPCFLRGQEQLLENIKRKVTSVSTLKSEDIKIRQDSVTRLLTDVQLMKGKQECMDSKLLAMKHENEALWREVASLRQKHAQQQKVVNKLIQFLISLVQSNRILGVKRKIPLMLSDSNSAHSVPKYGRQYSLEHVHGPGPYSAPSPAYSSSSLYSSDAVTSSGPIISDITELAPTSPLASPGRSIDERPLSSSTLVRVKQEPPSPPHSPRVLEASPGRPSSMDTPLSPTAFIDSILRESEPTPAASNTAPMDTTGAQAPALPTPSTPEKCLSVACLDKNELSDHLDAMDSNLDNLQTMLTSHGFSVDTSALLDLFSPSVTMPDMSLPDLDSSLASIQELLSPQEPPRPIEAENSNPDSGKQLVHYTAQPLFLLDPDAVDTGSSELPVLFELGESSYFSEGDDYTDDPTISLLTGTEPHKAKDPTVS
Briefly: enhancement of HSF1-driven luciferase signal – cell-based, NIH3T3, luminescence, dose retest, confirmation (AID 435004).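 Further: stress induced by proteasome inhibitor MG132 added 30 min after compound; luciferase reporter driven by HSF1 response element in NIH3T3 cells; actives raise luminescence as potentiators of the MG132 stress response.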 In kind it is functional.

Assay [3] can be described thus: Trypanosoma cruzi growth suppression in host cells – NIH3T3 host cells, beta-gal luminescence, confirmation (AID 2044).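 Further: intracellular parasites grown in NIH/3T3 mouse fibroblasts as host cells; luminescent beta-galactosidase reporter signal from transgenic T. cruzi replicating inside host cells; inhibitors lower the luminescence signal.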 In kind it is functional, cell-based.
Assay [4] in a line: NIH3T3 cell viability loss – ATP luminescence, mouse fibroblasts, counter-screen, dose response (AID 2010).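 Further: cells exposed to compound for about 90 hours before reading.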 The class given is functional, cell-based.
The target of assay [5] is T2, Corticotropin-releasing factor receptor 2/Corticotropin-releasing factor-binding protein (Homo sapiens, UniProt P24387+Q13324).
T2 sequence (Q13324 whole entry): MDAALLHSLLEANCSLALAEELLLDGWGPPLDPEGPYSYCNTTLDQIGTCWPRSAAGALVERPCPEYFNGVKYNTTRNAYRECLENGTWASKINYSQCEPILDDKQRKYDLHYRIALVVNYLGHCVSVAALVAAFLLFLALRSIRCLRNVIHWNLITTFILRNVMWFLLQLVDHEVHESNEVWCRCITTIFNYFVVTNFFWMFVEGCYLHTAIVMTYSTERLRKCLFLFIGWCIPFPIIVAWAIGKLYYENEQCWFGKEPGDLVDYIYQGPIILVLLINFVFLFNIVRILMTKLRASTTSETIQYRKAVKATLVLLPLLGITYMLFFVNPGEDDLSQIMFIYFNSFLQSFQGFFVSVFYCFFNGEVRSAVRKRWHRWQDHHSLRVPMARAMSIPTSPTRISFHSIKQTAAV
T2 sequence (P24387 whole entry): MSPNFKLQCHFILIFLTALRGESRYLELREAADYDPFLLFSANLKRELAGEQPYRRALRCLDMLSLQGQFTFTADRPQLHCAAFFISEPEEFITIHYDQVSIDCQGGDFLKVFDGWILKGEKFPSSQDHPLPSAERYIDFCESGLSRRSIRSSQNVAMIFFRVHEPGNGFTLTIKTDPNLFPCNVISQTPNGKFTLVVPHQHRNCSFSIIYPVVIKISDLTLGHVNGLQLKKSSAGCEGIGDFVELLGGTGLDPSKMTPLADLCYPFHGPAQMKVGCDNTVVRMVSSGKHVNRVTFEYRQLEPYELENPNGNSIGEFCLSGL
Briefly: activators of CRF receptor 2 with binding protein – uHTS hits, confirmation (AID 602473). In kind it is functional. The note with it: read-out: EC50_Mean.

The target in assay [6] is T1, Heat shock factor protein 1. In words: decrease of HSF1-responsive luciferase luminescence – cell-based, NIH3T3, dose retest, confirmation (AID 2382).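 Further: NIH3T3 fibroblasts with HSF1-driven luciferase reporter stressed by proteasome inhibitor MG132; luminescence from HSF1-driven luciferase expression after 8 hours of MG132 stress.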 In kind it is functional.
Assay [7] has as its target T2, Corticotropin-releasing factor receptor 2/Corticotropin-releasing factor-binding protein. Briefly: Dose Response confirmation of uHTS hits for small molecule antagonists of the CRF-binding protein and CRF-R2 receptor complex. The class given is functional. The note with it: read-out: IC50_Mean.
The nature of assay [8]: fluconazole-exposed Candida albicans growth modulators – fluorescence, retest, confirmation (AID 2467). In kind it is functional, cell-based.
Assay [9] is described as follows: NIH-3T3 fibroblast cytotoxicity, dose response, cytotoxicity control, cell-based, fluorescence, Alamar Blue, secondary assay (AID 2327).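 Further: NIH-3T3 mouse fibroblasts cultured with fluconazole at 8 µg/mL.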 In kind it is functional. Background: Alamar Blue is a resazurin reagent that responds to reducing activity.
Assay [10] has as its target T3, Calpain-2 catalytic subunit (Sus scrofa, UniProt P43367).
T3 sequence (P43367 whole entry): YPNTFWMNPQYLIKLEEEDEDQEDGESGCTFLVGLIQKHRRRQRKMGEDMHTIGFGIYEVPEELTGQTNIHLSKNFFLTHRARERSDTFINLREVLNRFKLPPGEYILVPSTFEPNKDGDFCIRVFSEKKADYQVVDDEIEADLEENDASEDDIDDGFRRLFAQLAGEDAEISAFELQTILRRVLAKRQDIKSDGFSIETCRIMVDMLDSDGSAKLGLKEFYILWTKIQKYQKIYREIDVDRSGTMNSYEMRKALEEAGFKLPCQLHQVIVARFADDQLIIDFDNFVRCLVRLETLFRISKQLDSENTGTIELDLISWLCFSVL
In words: m-calpain protease blockers, concentration series – biochemical, fluorogenic peptide substrate, dose response (AID 1420). In kind it is functional.

Assay [11] has as its target T4, RNA-binding protein pos-1 (Caenorhabditis elegans, UniProt G5EF15).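 Further: purified POS-1 fused to maltose binding protein made in E. coli; potency of compounds blocking POS-1 binding to fluorescent RNA.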
T4 sequence (G5EF15 whole entry): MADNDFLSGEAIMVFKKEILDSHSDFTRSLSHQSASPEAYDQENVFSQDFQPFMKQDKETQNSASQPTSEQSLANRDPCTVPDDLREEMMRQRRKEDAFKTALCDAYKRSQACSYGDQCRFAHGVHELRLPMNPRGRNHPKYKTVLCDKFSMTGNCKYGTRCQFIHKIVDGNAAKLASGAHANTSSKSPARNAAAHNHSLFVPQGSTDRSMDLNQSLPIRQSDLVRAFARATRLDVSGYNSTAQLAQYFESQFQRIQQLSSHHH
In words: disruptors of C. elegans POS-1 RNA interaction – biochemical, fluorescence polarization, dose response (AID 1964). (In general: In fluorescence polarisation assays a small probe gives low polarisation when free and higher when bound to something large.)

The target in assay [12] is T5, Zinc finger protein mex-5 (Caenorhabditis elegans, UniProt Q9XUB2).
T5 sequence (Q9XUB2 whole entry): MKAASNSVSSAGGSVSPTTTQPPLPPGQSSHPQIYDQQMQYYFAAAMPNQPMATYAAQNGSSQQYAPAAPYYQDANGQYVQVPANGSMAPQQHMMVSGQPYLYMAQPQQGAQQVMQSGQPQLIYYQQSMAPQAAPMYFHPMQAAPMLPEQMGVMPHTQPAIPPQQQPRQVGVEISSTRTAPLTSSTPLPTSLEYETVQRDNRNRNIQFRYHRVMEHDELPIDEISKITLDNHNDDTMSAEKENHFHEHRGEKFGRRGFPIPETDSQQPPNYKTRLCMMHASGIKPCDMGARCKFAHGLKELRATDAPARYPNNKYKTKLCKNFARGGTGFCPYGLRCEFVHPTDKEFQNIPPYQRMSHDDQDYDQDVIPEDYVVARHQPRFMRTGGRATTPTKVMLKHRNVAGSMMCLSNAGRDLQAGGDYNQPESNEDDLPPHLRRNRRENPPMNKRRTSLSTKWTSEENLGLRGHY
Briefly: potency of MEX-5 RNA-binding blockers – biochemical, C. elegans, fluorescence polarization, dose response (AID 1960).

Calls of active or inactive are those of the source. For most assays here, no stated cut-off is given here; in the data, actives have a measured EC50 and inactives only a lower limit. A value given as a limit tells only on which side of the number the result lay.

The text below walks through data of ChEMBL document CHEMBL1201862, “PubChem BioAssay data set” (2004).

In general, AC50 refers to the concentration at which the activity in the assay is half-maximal.

Chain of FAD-linked sulfhydryl oxidase ALR (P55789 whole entry): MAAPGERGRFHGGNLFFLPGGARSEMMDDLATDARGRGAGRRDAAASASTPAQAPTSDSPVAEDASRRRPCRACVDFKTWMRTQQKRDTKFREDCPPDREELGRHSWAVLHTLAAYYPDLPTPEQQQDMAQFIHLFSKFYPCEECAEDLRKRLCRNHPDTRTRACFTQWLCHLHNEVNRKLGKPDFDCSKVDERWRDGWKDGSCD

As to `Cc1ccccc1NS(=O)(=O)c1cccc2nonc12`, in assay [1], the AC50 is 8.51 µM (active). For `COc1cc(NC(=O)COC(=O)c2ccc(C)c(S(=O)(=O)N3CCCCC3)c2)c(C)cc1[N+](=O)[O-]`, in assay [2], the EC50 was > 260 µM (inactive).

With `Cn1c(S)nnc1CCNC(=O)c1ccc(Cl)cc1`, in [1], the AC50 is 1.54 µM (active). `Cc1cccc(N2CCN(c3cccc(C)c3)C2c2cccnc2)c1`: the EC50 in assay [2] was > 260 µM (inactive); in assay [3] it was 0.165 µM (active); in [4] it was 4.39 µM (active). Take `O=C(Nc1ccccc1)C1Cc2ccccc2CN1C(=O)c1ccco1` (centres undefined): the AC50 in [1] was 12.9 µM (active).

With `NC(=O)c1nn(-c2ccccc2)nc1NC(=O)CN1CCCCC1`, the EC50 in assay [2] was > 260 µM (inactive). Turning to `CC(C)CN(CC(C)C)C(S)=NC1CCCCC1`, the EC50 is > 53 µM (inactive) in [5] and 17 µM (active) in assay [6]. The IC50 in assay [7] is > 47.1 µM (inactive). For the molecule `Cc1ccc(-c2nn(C)c(=O)c3ccccc23)cc1S(=O)(=O)NCCN(C)C`, the EC50 in [6] was > 195 µM (not active). `O=C(NC(=S)Nc1ccc2oc(=O)ccc2c1)c1cc2ccccc2o1`: the EC50 in [6] is given as > 195 µM (not active). `CCCCOP(=O)(c1ccc(N(C)C)cc1)C(O)c1ccccc1F` (centres undefined): the EC50 is 2.56 µM (active) in [8] and > 150 µM (inactive) in assay [9].

Consider `Cc1ccccc1Nc1scc(-c2ccc(Cl)cc2)[n+]1-c1ccccc1C`, for which the IC50 in assay [10] is > 50 µM (not active). Take `O=C(CSc1nc(-c2ccco2)cc(C(F)(F)F)n1)NCCc1ccccc1`: the EC50 in [8] is > 38 µM (not active); in assay [9], 136 µM (inconclusive). In the case of `O=C(C1CCCO1)N1CCC2(CC1)OCCO2` (centres undefined), in assay [6], the EC50 is listed as > 195 µM (not active).

As to `CN1CCC(=NNc2ccc(S(=O)(=O)N3CCOCC3)cc2[N+](=O)[O-])CC1`, the EC50 in assay [2] was > 260 µM (inactive). Regarding `CC(C)CCN(C(=S)NC(=O)C1CCCCC1)c1c(N)n(Cc2ccccc2)c(=O)[nH]c1=O`, the IC50 in assay [10] is > 50 µM (not active). On to `CCC1CCCCN1C(=O)c1cc2c(=O)n3cccc(C)c3nc2s1` (centres undefined), for which, in assay [6], the EC50 is > 195 µM (not active). In the case of `Cc1nonc1OCCNCCNc1ccc([N+](=O)[O-])cc1Cl`, in [2], the EC50 is > 260 µM (inactive). Consider `CN(C)C=O.COc1ccc(/C=C/c2nc3ccccc3c(=O)n2-c2cccc(C(=O)O)c2)cc1`, for which the EC50 in assay [6] was 22.7 µM (active).

As to `O=C1N=C(c2ccccc2)C(c2ccccc2)N1` (centres undefined), in [1], the AC50 is 0.318 µM (active). Take `O=C(O)CCc1ccc(-c2cccs2)n1NC(=O)c1ccccc1Br`: the AC50 in [1] is 6.95 µM (active). Take `Cc1ccc(-c2nnn[nH]2)cc1`: the EC50 in assay [2] is > 260 µM (inactive). With `O=C(NCC1CCCO1)c1nn2c(C(F)(F)F)cc(-c3cc(Br)cs3)nc2c1Br` (centres undefined), the values for the EC50 in assay [2], in [11] and in assay [12] were > 260 µM (inactive), > 300 µM (not active) and > 300 µM (inconclusive), respectively. On to `Cc1ccc(Nc2nc(CSc3nnnn3C)cs2)cc1`, for which the AC50 in assay [1] is 1.54 µM (active).

In the case of `COc1ccc(CC(=O)N2CCN=C2SCc2ccc([N+](=O)[O-])cc2)cc1`, the AC50 in [1] is < 0.005 µM (active).

Take `Cc1ccc(Nc2nc(CSc3nnc(-c4ccncc4)n3-c3ccccc3C)cs2)cc1`: the EC50 in [8] was 4.95 µM (active); in assay [3], 2.47 µM (active); in assay [9], > 160 µM (inactive); in assay [4], > 60 µM (inconclusive).

Regarding `O=C(Nc1cccn(Cc2c(Cl)cccc2Cl)c1=O)c1ccccc1Cl`, in [2], the EC50 is > 260 µM (inactive). As for `C=CCN1C(=O)NC(=O)/C(=C(/C)NC2CCN(Cc3ccccc3)CC2)C1=O`, in [6], the EC50 was > 195 µM (not active). On to `Cc1cc(NC(=O)COC(=O)[C@H](C)NC(=O)c2ccccc2)no1`, for which, in [6], the EC50 was > 195 µM (not active). Regarding `CC(Sc1nc(-c2ccccc2)cc(C(F)(F)F)n1)C(=O)Nc1sc2c(c1C#N)CCC2` (centres undefined), the EC50 in assay [2] was > 260 µM (inactive); in assay [3] it was 0.137 µM (active); in [4], > 60 µM (not active). As for `CN(C)CCNC(=O)C(=O)NCC(c1ccc2c(c1)OCO2)N1CCN(c2ccc(F)cc2)CC1` (centres undefined), the AC50 in assay [1] is 0.439 µM (active). `N#Cc1ccc(OCCN2CCc3ccccc3C2)cc1`: the EC50 in assay [2] was > 260 µM (inactive). For the molecule `Cc1ccc(CC2SC(N=C(N)N)=NC2=O)cc1` (centres undefined), the EC50 in assay [2] was > 260 µM (inactive). On to `CC1=NN(c2ccccc2)C(=O)C1c1ccccc1` (centres undefined), for which, in [1], the AC50 was 2.86 µM (active). Consider `CCN(CC)S(=O)(=O)c1cccc(C(=O)N/N=C/c2cc(OC)c(O)c(OC)c2)c1`, for which the AC50 in assay [1] was 0.21 µM (active). For the molecule `O=C(O)CC1S/C(=N/N=C/c2ccc(Br)cc2)N(c2ccccc2)C1=O` (centres undefined), in assay [10], the IC50 is recorded as 9.55 µM (not active). In the case of `O=C(N/N=C/c1cccc(C(F)(F)F)c1)c1ccc(O)cc1`, the EC50 in assay [6] was > 195 µM (not active).
